Measurements published in ChEMBL document CHEMBL3046273, “Molecular cloning and pharmacological characterisation of a tyramine receptor from the rice stem borer, Chilo suppressalis (Walker)” (Pest Manag Sci, 2013).
pEC50: −log10 of the molar value. Structures can show the parent of a compound that is named as a salt. Calls of active or inactive are those of the source. The calls are words filed in the database; no cut-off is given here.

Assays:
Assay type in all cases: functional, cell-based
[1] = target: T1, TyR1 (Chilo suppressalis) (UniProt H9TVJ1); assay: Agonist activity at Chilo suppressalis (rice stem borer) tyramine receptor TyR1 expressed in HEK293 cells assessed as reduction in forskolin-induced cAMP accumulation at 10 uM incubated for 20 min; design: scale not given: the % may be the effect or the level left
T1 sequence (whole entry): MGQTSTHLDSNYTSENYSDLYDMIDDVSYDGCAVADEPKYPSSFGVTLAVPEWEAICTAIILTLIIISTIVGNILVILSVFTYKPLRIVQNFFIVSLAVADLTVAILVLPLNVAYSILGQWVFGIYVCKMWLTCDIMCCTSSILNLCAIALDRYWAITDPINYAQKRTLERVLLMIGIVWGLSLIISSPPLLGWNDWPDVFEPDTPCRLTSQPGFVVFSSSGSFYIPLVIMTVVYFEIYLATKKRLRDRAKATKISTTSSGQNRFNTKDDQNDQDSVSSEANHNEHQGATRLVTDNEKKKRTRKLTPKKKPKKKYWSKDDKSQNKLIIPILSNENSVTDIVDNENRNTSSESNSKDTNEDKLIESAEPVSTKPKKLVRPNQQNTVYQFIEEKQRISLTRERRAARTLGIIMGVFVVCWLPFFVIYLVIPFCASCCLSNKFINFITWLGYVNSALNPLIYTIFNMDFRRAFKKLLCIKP

[2] = target: T1, TyR1 (Chilo suppressalis); assay: Agonist activity at Chilo suppressalis (rice stem borer) tyramine receptor TyR1 expressed in HEK293 cells assessed as reduction in forskolin-induced cAMP accumulation at < 1 umol incubated for 20 min
[3] = target: T1, TyR1 (Chilo suppressalis); assay: Agonist activity at Chilo suppressalis (rice stem borer) tyramine receptor TyR1 expressed in HEK293 cells assessed as increase in forskolin-induced cAMP accumulation at 10 uM incubated for 20 min relative to untreated control
[4] = target: T1, TyR1 (Chilo suppressalis); assay: (§1) Agonist activity at Chilo suppressalis (rice stem borer) tyramine receptor TyR1 expressed in HEK293 cells assessed as reduction in forskolin-induced cAMP accumulation incubated for 20 min
[5] = target: T2, TyR1 (Chilo suppressalis, UniProt H9TVJ1); assay: as §1
T2 sequence (H9TVJ1 whole entry): T1 sequence (whole entry)

Compound: c1ccc2c(CC3=NCCN3)cccc2c1
- Activity [1]: inactive

Compound: Cc1ccc(/N=C/N(C)/C=N/c2ccc(C)cc2C)c(C)c1
- Activity [1]: Active
- Activity [2]: inactive

Compound: Cc1cc(Cl)ccc1/N=C/N(C)C
- Activity [1]: inactive

Compound: NCCc1c[nH]c2ccc(O)cc12
- Activity [3]: inactive
- Activity [1]: inactive

Compound: NCCc1ccc(O)cc1 [TYRAMINE HYDROCHLORIDE]
- Activity [1]: 75%
- Activity [4]: Dose-dependent effect
- pEC50 [5]: 6.43

Compound: NCC(O)c1ccc(O)cc1 (racemic) [OCTOPAMINE HYDROCHLORIDE]
- Activity [1]: 56%
- Activity [4]: Dose-dependent effect
- pEC50 [5]: 6.01

Compound: Clc1cccc(Cl)c1NC1=NCCN1
- Activity [1]: Active

Compound: NCCc1ccc(O)c(O)c1
- fold change (FC) [3]: 2
